Where “and” joins values, the source holds several entries; their conditions need not be identical. Identical values can stand only once. Counter-ions that a name gives are not always drawn. Like-named read-outs stand apart in the source and are kept apart here.
Tests used:
[1] = target: T1, human Smoothened receptor (Homo sapiens, UniProt Q99835); assay: Inhibition of binding of 3H-(7d) to membranes of HEK-hSmo cells; details: for Ki: read-out: Ki ± SEM, binding of compound 3H-(7d)
T1 construct: expressed in transfected cells
Protocol: The binding test is carried out on membranes enriched with Smoothened receptor. Cells of the HEK-hSmo line were used for preparing these membranes. The cells are washed and recovered in iced PBS. After centrifugation at 100 g for 7 minutes at 4° C., the pellet is taken up in 10 times its volume of an iced buffer A (50 mM HEPES, pH 7.4, 1 mM EDTA) with addition of 10 μl of a cocktail of protease inhibitors (PEAK, Sigma) per ml of buffer, then it is homogenized using a Polytron grinding mill. After centrifugation at 500 g for 30 minutes at 4° C., which makes it possible to remove the nuclei from the cells, the supernatant is centrifuged again at 48 000 g for 45 min at 4° C. The pellet is taken up in 2 ml of buffer A with PEAK added, then the suspension is homogenized using a glass conical grinding mill and is passed through a 23 G needle. Finally, aliquots are placed in Eppendorf tubes and stored at −80° C. The concentration of total protein in the preparation is determined by Lowry's method using BSA for preparing the standard range.
The membranes are resuspended in a buffer (50 mM HEPES and 3 mM MgCl2) containing 0.2% of BSA. The tests of binding of ^3H-(7d) are carried out in polypropylene tubes. The membranes (2 μg of proteins) are incubated with the ^3H-(7d) in the presence or absence of the cold test compounds for 3 hours at 37° C. in a final volume of 400 μl. Incubation is stopped by immersing the tubes in iced water followed by rapid filtration (Brandel) through a glass fiber filtration membrane (GF/C) treated beforehand with 0.3% of polyethylenimine, which can reduce the nonspecific binding of the ^3H-(7d) to the filtration membrane. The radioactivity retained on the filter is measured in the presence of 3 ml of scintillating agent in a liquid scintillation counter.
In this experiment, the cold ligand competes with the radioactive ligand for binding to the receptor, and the affinity (Ki) of each cold ligand for the receptor can be analyzed based on the IC50 values deduced from the inhibition curves.

C3H10T1/2 cells = assay: Differentiation of C3H10T1/2 cells induced by SAG, alkaline phosphatase (AP) activity; type: cell-based, mouse
Protocol: The test compounds of formula (I) were dissolved in dimethylsulfoxide up to a concentration of 10 mM, then stored at a temperature of −20° C. until used.
The line of C3H10T1/2 pluripotent fibroblast cells (ATCC) was cultured in the conditions recommended by the ATCC. These cells were activated using 0.1 μM of SAG according to the methods described by Chen et al., Proc. Natl. Acad. Sci. USA, 2002, 99, 14071 and Frank-Kamenetsky et al., J. Biol., 2002, 1, 10.
Activation by SAG causes differentiation of the cell line and allows it to express alkaline phosphatase (AP). It was thus possible to measure the activity of the Hedgehog protein signalling pathway via measurement of the alkaline phosphatase (AP) activity.
The C3H10T1/2 cells were seeded on 96-well plates at a density of 5.10^3 cells per well, 24 hours before adding the test compounds at a concentration varying from 1 nM to 30 μM and in the presence of 0.1 μM of SAG, using DMEM (Dulbecco's Modified Eagle's Medium) with 10% fetal calf serum as culture medium. The tests were carried out in quadruplicate. The plates were then incubated for 5 to 6 days at a temperature of 37° C. under 5% CO2 atmosphere. The cells were then washed in cold phosphate buffer (“Phosphate Buffer Serum”: PBS), then lysed by sonication at 4° C. in 50 μL of a solution containing 0.9% of NaCl and 0.2% of Triton X-100.
Measurement of the alkaline phosphatase (AP) activity in the lysates thus obtained was then performed according to the method described by Pepinsky et al. (J. Biol. Chem., 1998, 273, 14037). After adding 100 μL of reaction buffer (200 mM Tris-HCl; pH 10.5; 0.4 M of 2-amino-2-methylpropanol and 8 mM of MgCl2) and 50 μL of substrate (4 mM of p-nitrophenyl disodium phosphate), the lysates were incubated at 37° C. for 30-60 min, then the optical density was read at a wavelength of 415 nm.

PCGs of rat cerebellum = assay: Proliferation of granule cell precursors (PCGs) of rat cerebellum induced by SAG, 3H-thymidine incorporation; type: cell-based; details: proliferation induced by SAG (0.01 μM), 3H-thymidine incorporation, read-out: IC50 ± SEM, PCGs of rat cerebellum (3)
Protocol: The granule cell precursors (GCP) are isolated from cerebellums of rats (IFFA-CREDO, France), 8 days after birth (P8). The cerebellums are taken, cut into small pieces, placed in Krebs-Ringer buffer (120 mM NaCl, 5 mM KCl, 1 mM KH2PO4, 25 mM NaHCO3, 15 mM glucose, 0.04 mM phenol red) and incubated for 15 minutes at room temperature in a dissociation buffer composed of Krebs-Ringer with addition of 250 mg/ml of trypsin (Sigma, France). Enzymatic dissociation is stopped by adding an equal volume of Krebs-Ringer buffer containing 250 mg/ml of a trypsin inhibitor and 80 mg/ml of DNase (Sigma, France). The tissue is centrifuged at 100 g for 10 seconds and the pellet obtained is resuspended and triturated using Pasteur pipettes of decreasing diameter to obtain a suspension of isolated cells. This suspension is centrifuged at 200 g for 5 minutes and the pellet obtained is resuspended in Neurobasal medium supplemented with 1 mM of pyruvate, 2 mM L-glutamine, penicillin/streptomycin and 1% of supplement N2, 60 mg/ml N-acetyl cysteine and […] of bovine serum albumin (BSA, Sigma, France).
The cerebellar GCPs obtained are transferred to 96-well plates treated beforehand with poly-D-lysine at a density of 2.10^5 cells/well. SAG in the presence or absence of the other test compounds is added immediately. 12 hours before the end of culture, tritiated thymidine (^3H-thymidine) is added. The cells are aspirated and recovered on a glass fiber filter (GF/C) using an automated cell collector (Brandel, USA). The amount of radioactivity incorporated by the cells was quantified in the presence of a scintillating agent in a liquid scintillation counter (Wallac, USA).
The cerebellar PCGs proliferate in response to activation of the Shh signalling pathway, a response that can be inhibited by the Smo antagonists (Rohatgi et al., 2009, Proc. Natl. Acad. Sci. USA 106: 3196-201). We therefore analyzed the capacity of compound (7d) for inhibiting the proliferation of the PCGs of rat cerebellum in primary culture by measuring the incorporation of tritiated thymidine, a marker of DNA newly synthesized during the proliferation process.

human Smo receptor = target: T2, human Smo receptor (Homo sapiens, UniProt Q99835); assay: Competition with bodipy-cyclopamine (BC) binding in HEK-hSmo cells; details: for IC50: bodipy-cyclopamine (5 nM), HEK-hSmo cells, read-out: IC50 ± SEM, BC binding (4)
T2 construct: expressed in transfected cells
Protocol: Cells of the HEK293 line stably transfected with the human Smo receptor are used. The experiment was conducted according to the protocol described in Roudaut et al., Mol. Pharmacol. 79: 453-460, 2011.
At the end of the incubation, the cells are fixed and stained with DAPI, a fluorescent molecule with high affinity for DNA which makes it possible to visualize the nuclei in blue in fluorescence microscopy.

[2] = Binding of 3H-(7d) to membranes of HEK293 cells not transfected with human Smo cDNA; details: 1 μM
cells = details: Borzillo et al., 2005; cited from earlier work
[3] = calculated from IC50, HEK-hSmo membranes
[4] = Mus musculus, C3H 10T1/2, after induction by SAG at 0.1 μM, read-out: IC50, inhibition of alkaline phosphatase (AP) activity, differentiation of C3H10T1/2 cells
[5] = AP activity, differentiation induced by SAG (0.1 μM), read-out: IC50 ± SEM, C3H10T1/2 cells (2)
[6] = after induction by SAG at 0.1 μM, read-out: IC50, inhibition of alkaline phosphatase (AP) activity, differentiation of C3H10T1/2 cells
[7] = 0.35 nM 3H-(7d), HEK-hSmo membranes, 3 hours at 37° C., read-out: IC50 ± SEM, binding of compound 3H-(7d)
[8] = Mus musculus, C3H 10T1/2, AP activity, differentiation induced by SAG (0.1 μM), read-out: IC50 ± SEM, C3H10T1/2 cells (2)

T2 sequence (Q99835 28-787): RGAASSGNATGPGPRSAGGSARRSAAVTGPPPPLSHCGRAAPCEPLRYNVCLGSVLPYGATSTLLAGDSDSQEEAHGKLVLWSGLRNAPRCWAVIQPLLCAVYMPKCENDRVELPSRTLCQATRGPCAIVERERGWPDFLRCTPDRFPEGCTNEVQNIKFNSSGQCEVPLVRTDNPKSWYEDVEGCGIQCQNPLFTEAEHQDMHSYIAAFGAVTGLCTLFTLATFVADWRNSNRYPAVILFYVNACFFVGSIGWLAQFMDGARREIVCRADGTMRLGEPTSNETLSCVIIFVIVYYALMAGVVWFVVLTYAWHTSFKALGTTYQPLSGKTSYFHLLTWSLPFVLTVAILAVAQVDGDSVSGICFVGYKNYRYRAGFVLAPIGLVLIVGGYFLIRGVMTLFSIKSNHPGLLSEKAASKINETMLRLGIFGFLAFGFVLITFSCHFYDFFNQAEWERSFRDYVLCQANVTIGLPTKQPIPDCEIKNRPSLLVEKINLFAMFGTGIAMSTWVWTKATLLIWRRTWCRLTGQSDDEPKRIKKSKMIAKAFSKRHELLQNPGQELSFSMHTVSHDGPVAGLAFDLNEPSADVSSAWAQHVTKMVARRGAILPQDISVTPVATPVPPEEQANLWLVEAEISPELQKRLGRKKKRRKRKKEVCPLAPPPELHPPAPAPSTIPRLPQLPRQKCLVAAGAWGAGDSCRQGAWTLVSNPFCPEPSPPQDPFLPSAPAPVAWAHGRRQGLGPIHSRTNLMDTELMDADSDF
T1 sequence (Q99835 28-787): as above

In the case of c1ccc2c(Oc3nc(Nc4ccc(N5CCOCC5)cc4)c4ncn(C5CCCCC5)c4n3)cccc2c1 [Purmorphamine, purmorphamine], the “IC50 ± SEM, binding of compound 3H-(7d)” value ([1]; 0.35 nM 3H-(7d), HEK-hSmo membranes, 3 hours at 37° C.) is reported as “inactive”, the “Inhibition of the binding of compound 3H-(7d), in words” value ([1]; HEK-hSmo membranes) is reported as “not active” and the IC50 ([1]; HEK-hSmo membranes, agonists (FIG. 5), read-out: IC50, binding of compound 3H-(7d), unit inferred) is reported as > 1000 nM. For the same molecule, the “Ki ± SEM, binding of compound 3H-(7d)” value [1, 3] was “inactive”.
Work on COc1cc(C(=O)NC(=N)Nc2ccc(C)c(NC(=O)c3ccc(C/C=C/c4ccccc4)cc3)c2)cc(OC)c1OC [Compound 7e, (E)-N—(N-(3-(4-cinnamylbenzamido)-4-methylphenyl)carbamimidoyl)-3,4,5-trimethoxybenzamide hydrochloride] yielded an IC50 (C3H10T1/2 cells; [4]) of 57 ± 2 nM.
Molecule COc1cc(C(=O)NC(N)=Nc2ccc(C)c(NC(=O)c3ccc(-c4ccccc4)cc3)c2)cc(OC)c1OC [MRT-83] has an IC50 (PCGs of rat cerebellum) of 6 nM, an IC50 (C3H10T1/2 cells; [5]) of 11 ± 3 nM and an IC50 (C3H10T1/2 cells; [6]) of 11 ± 3 nM. For the same molecule, the IC50 [1, 7] was 11 nM and 10.5 nM, the Ki [1, 3] was 4.8 ± 1.2 nM and the “Block of the binding of BC to HEK-hSmo cells, in words” value (human Smo receptor; BC 5 nM, 2 hours) was “very similar and high”. The IC50 (human Smo receptor) was 5 ± 3 nM.
With CS(=O)(=O)c1ccc(C(=O)Nc2ccc(Cl)c(-c3ccccn3)c2)c(Cl)c1 [GDC-0449] the IC50 (PCGs of rat cerebellum; Rattus norvegicus) was 8 ± 1 nM, the “Effect on the binding of compound 3H-(7d) to non-transfected membranes” value [2] was “no effect” and the IC50 (C3H10T1/2 cells; [8]) was 10 ± 3 nM. For the same molecule, the IC50 (C3H10T1/2 cells; [4]) was 10 ± 1 nM and the “Inhibition of the specific binding of compound 3H-(7d) at a single concentration” value ([1]; 1 μM) was “completely inhibits”.
Molecule COc1cc(C(=O)NC(=N)Nc2ccc(C)c(NC(=O)c3ccc(Cc4ccccc4)cc3)c2)cc(OC)c1OC [Compound 7g, N—(N-(3-(4-benzylbenzamido)-4-methylphenyl)carbamimidoyl)-3,4,5-trimethoxybenzamide hydrochloride] has an IC50 (C3H10T1/2 cells; [4]) of 220 ± 25 nM.
With cyclopamine the IC50 (PCGs of rat cerebellum) was 103 nM, the IC50 (C3H10T1/2 cells; [5]) was 620 ± 30 nM and the IC50 (C3H10T1/2 cells; [6]) was 620 ± 30 nM. The “Concentration cytotoxic for the cells” value (cells) was “above 10 μM”.
In the case of COc1cc(C(=O)NC(=N)Nc2ccc(C)c(NC(=O)c3ccc(C(=O)c4ccccc4)cc3)c2)cc(OC)c1OC [Compound 7a, N—(N-(3-(4-benzoylbenzamido)-4-methylphenyl)carbamimidoyl)-3,4,5-trimethoxybenzamide hydrochloride], the IC50 (C3H10T1/2 cells; [4]) is reported as 32 ± 11 nM.
Work on COc1cc(C(=O)NC(=N)Nc2ccc(C)c(NC(=O)c3ccc4c(c3)Cc3ccccc3-4)c2)cc(OC)c1OC [Compound 7b, N-(2-methyl-5-(3-(3,4,5-trimethoxybenzoyl)guanidino)phenyl)-9H-fluorene-2-carboxamide hydrochloride] yielded an IC50 (C3H10T1/2 cells; [4]) of 28 ± 3 nM.
For CNC1CCC(N(Cc2cccc(-c3ccncc3)c2)C(=O)c2sc3ccccc3c2Cl)CC1 (centres unmarked) [SAG], the IC50 [1, 7] was 5 nM and 5.2 nM and the Ki [1, 3] was 2.4 ± 0.3 nM.
In the case of COc1cc(C(=O)NC(=N)Nc2ccc(C)c(NC(=O)c3ccc(OCc4ccccc4)cc3)c2)cc(OC)c1OC [Compound 7h, N—(N-(3-(4-(benzyloxy)benzamido)-4-methylphenyl)carbamimidoyl)-3,4,5-trimethoxybenzamide hydrochloride], the IC50 (C3H10T1/2 cells; [4]) is reported as 72 ± 15 nM.
For Cc1c(C(=O)Nc2ccc(N3C[C@@H](C)O[C@@H](C)C3)nc2)cccc1-c1ccc(OC(F)(F)F)cc1 [LDE225], the IC50 (PCGs of rat cerebellum; Rattus norvegicus) was 3 nM, the IC50 (C3H10T1/2 cells; [8]) was 22 ± 3 nM and the IC50 (C3H10T1/2 cells; [4]) was 22 ± 3 nM. For the same molecule, the IC50 [1, 7] was 4 nM and 4.2 nM, the Ki [1, 3] was 1.9 ± 0.3 nM and the IC50 (human Smo receptor) was 8 ± 2 nM.
Work on COc1cc(C(=O)NC(=S)Nc2cccc(NC(=O)c3ccccc3)c2)cc(OC)c1OC [MRT-10] yielded an IC50 (C3H10T1/2 cells; SAG 0.1 μM, Mean ± SEM, n ≧ 3, read-out: IC50, differentiation of C3H10T1/2 cells) of 900 ± 200 nM.
With COc1cccc(CN(C(=O)CC(C)(C)C)[C@H]2C[C@@H](C(=O)N3CCNCC3)N(Cc3ccc4c(c3)OCO4)C2)c1 [Cur61414] the “Inhibition of the binding of compound 3H-(7d), in words” value ([1]; HEK-hSmo membranes) was “micromolar order”.

Source: patent publication US8981149B2, “Compounds modulating the hedgehog protein signaling pathway, marked forms thereof, and applications” (Centre National De La Recherche Scientifique, priority 2011, dated 2015)
